The source of these data is ChEMBL document CHEMBL1201862, “PubChem BioAssay data set” (2004).

Holding throughout (assay): inhibition of tumour cell growth, NCI panel, 48 h
Experiment [1] relates to COLO 205.
For experiment [2], the system named is SR.
Experiment [3] concerns UACC-62.
Experiment [4] deals with Malme-3M.
For experiment [5], the system named is NCI-H522.
Experiment [6] relates to SNB-75.
Experiment [7] relates to EKVX.
Experiment [8] relates to CCRF-CEM.
Experiment [9] has as its system HCT-15.
Experiment [10] relates to LOX IMVI.
The subject of experiment [11] is OVCAR-3.
Experiment [12] concerns UO-31.
Experiment [13] has as its system SF-539.
Experiment [14] deals with HOP-62.
The test system of experiment [15] is SK-OV-3.
The test system of experiment [16] is NCI-H226.
In experiment [17] the test system is A498.

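Method: 48-hour compound exposure of cells in 96-well plates, five concentrations, linear interpolation of endpoints. GI50 is the concentration that inhibits growth by half.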 Activity calls are given as the source filed them. No stated cut-off is given here; in the data, active = GI50 up to about 1.1 µM and inactive = higher.

For the compound `CC(Cn1c2c3ccccc3ccc2c2oc(=O)c3ccccc3c21)N(C)C` (stereo not drawn), the GI50 in experiment [1], in experiment [2], in experiment [3], in experiment [4], in [5] and in experiment [6] was > 100 µM (inactive) each time. Further, the GI50 in experiment [7] is > 100 µM (inactive); in experiment [8], > 100 µM (inactive); in experiment [9], greater than 100 µM; in experiment [10], > 100 µM (inactive); in [11] it was > 100 µM (inactive); in [12], > 100 µM (inactive). For the same compound, the GI50 in experiment [13] is > 100 µM (inactive).
Consider `COC(=O)C(c1ccc(OC)cc1)N1C(=O)[C@@H](NC(=O)c2ccccc2)[C@H]1[C@@H](C)O` (stereo partly drawn), for which the GI50 in experiment [14], in experiment [1], in [2], in experiment [3], in experiment [15] and in [4] was > 100 µM (inactive) throughout. Besides, the GI50 in experiment [16] is > 100 µM (inactive); in experiment [5], > 100 µM (inactive); in experiment [6], > 100 µM (inactive); in experiment [7] it was > 100 µM (inactive); in experiment [8], > 100 µM (inactive); in experiment [9], greater than 100 µM. Further, the GI50 in experiment [10], in experiment [11], in experiment [12] and in experiment [13] was > 100 µM (inactive) throughout.
Turning to `C=CCn1c(=S)sc2c(C(=O)OCC)c3c(C)cc(C)cn3c2c1=O`, the GI50 in experiment [14] was > 100 µM (inactive); in [1], > 100 µM (inactive); in experiment [2], > 100 µM (inactive); in experiment [3] it was > 100 µM (inactive); in experiment [15] it was 90.8 µM (inactive); in experiment [4], > 100 µM (inactive). In addition, the GI50 was > 100 µM (inactive) in experiment [16]; 65.6 µM (inactive) in [5]; 45.4 µM (inactive) in [6]; > 100 µM (inactive) in experiment [7]; > 100 µM (inactive) in experiment [8]; greater than 100 µM in [9]. Also, the GI50 is > 100 µM (inactive) in [10], > 100 µM (inactive) in [11], > 100 µM (inactive) in [12] and 80.5 µM (inactive) in [13].
With `O=C1C(Br)=CC2(C=C1Br)CCNC1=C2C(=O)c2ccccc2C1=O`, the GI50 in [14] is 16 µM (inactive); in [1] it was 4.61 µM (inactive); in experiment [2], 2.95 µM (inactive); in [3], 8.59 µM (inactive); in experiment [15], 30.4 µM (inactive); in [4], 18.1 µM (inactive). The GI50 in experiment [5] was 3.58 µM (inactive); in [6] it was > 100 µM (inactive); in [7], 38.5 µM (inactive); in [8], 3.57 µM (inactive); in experiment [9], 7.76 µM; in experiment [10], 4.24 µM (inactive). Further, the GI50 in [11] was 29.6 µM (inactive).
Consider `Nc1ncnc2c1ncn2CCCC(c1ccccc1)P(=O)(O)O` (stereo not drawn), for which the GI50 in [1], in [2], in experiment [3], in [15], in [4] and in experiment [16] was > 100 µM (inactive) in each case. The GI50 in experiment [5] was > 100 µM (inactive); in experiment [6], > 100 µM (inactive); in experiment [7], > 100 µM (inactive); in experiment [9] it was greater than 100 µM; in [17], 63 µM (inactive); in experiment [10], > 100 µM (inactive). Moreover, the GI50 in [11], in experiment [12] and in [13] was > 100 µM (inactive) each time.
Regarding `COc1cccc(C2c3cc4c(cc3OC(O)(CO)C2C(=O)O)OCO4)c1.COc1cccc(C2c3cc4c(cc3OC3(O)COC(=O)C23)OCO4)c1` (stereo not drawn), the GI50 is > 100 µM (inactive) in experiment [14]; > 100 µM (inactive) in experiment [1]; 38.8 µM (inactive) in experiment [2]; 33.5 µM (inactive) in experiment [3]; 91.8 µM (inactive) in experiment [15]; > 100 µM (inactive) in experiment [4]. The GI50 in [16] is 50 µM (inactive); in experiment [6], 14.5 µM (inactive); in experiment [7], 42.8 µM (inactive); in experiment [8], 37.6 µM (inactive); in [9], 43.9 µM; in experiment [17], 47.4 µM (inactive). Moreover, the GI50 is 52.1 µM (inactive) in [10], 69.5 µM (inactive) in experiment [11], 64.3 µM (inactive) in experiment [12] and > 100 µM (inactive) in experiment [13].
Regarding `CC1(C)CC[C@]2(C(=O)O)CCC3(C)C(=CCC4[C@@]5(C)CC[C@H](OC6OCC(O)C(O)C6OC6OC(CO)C(O)C(O)C6O)C(C)(C)C5CC[C@]43C)C2C1` (stereo partly drawn), the GI50 is 2.09 µM (inactive) in experiment [14]; 1.89 µM (inactive) in experiment [1]; 2.29 µM (inactive) in experiment [2]; 1.83 µM (inactive) in experiment [3]; 2.22 µM (inactive) in experiment [15]; 1.87 µM (inactive) in experiment [4]. The GI50 is 1.55 µM (inactive) in experiment [16]; 2.2 µM (inactive) in [6]; 1.79 µM (inactive) in [7]; 2.17 µM in [9]; 2.18 µM (inactive) in experiment [17]; 1.95 µM (inactive) in experiment [10]. In addition, the GI50 in experiment [11] was 2.12 µM (inactive); in experiment [12], 2.16 µM (inactive); in [13], 2.22 µM (inactive).
Consider `Cc1ccc(Nc2nc(-c3ccc(-c4ccc([N+](=O)[O-])cc4)o3)cs2)cc1`, for which the GI50 in [14] is > 100 µM (inactive); in experiment [1], 40 µM (inactive); in [2], 11.4 µM (inactive); in experiment [3], 99.8 µM (inactive); in experiment [15], > 100 µM (inactive); in experiment [4], 65.2 µM (inactive). Also, the GI50 in experiment [16] was 48.3 µM (inactive); in experiment [6], 50.5 µM (inactive); in experiment [9] it was 15.7 µM; in [10] it was 33.8 µM (inactive); in experiment [11], > 100 µM (inactive); in [12], 8.51 µM (inactive). Moreover, in experiment [13], the GI50 is 93.8 µM (inactive).
`CCOC(=O)C(=O)Nc1c(F)cc(F)cc1Br`: the GI50 in experiment [14], in experiment [1], in experiment [2], in experiment [3], in experiment [15] and in experiment [4] was > 100 µM (inactive) throughout. The GI50 in experiment [16] was > 100 µM (inactive); in experiment [6], > 100 µM (inactive); in [7] it was > 100 µM (inactive); in [8] it was > 100 µM (inactive); in experiment [9], greater than 100 µM; in experiment [17], > 100 µM (inactive). In addition, the GI50 in [10], in [11], in [12] and in experiment [13] was > 100 µM (inactive) in each case.
